Legend:
[1] = biological target: JAK3 (Homo sapiens (Human), UniProt P52333); experiment: Jak Biochemical HTRF Assay (JAK3); conditions: recombinant GST-tagged catalytic domain, [ATP] 2.9 μM
Description: (§1) Biological Assays Jak Biochemical HTRF Assay Protocol
The ability of compounds to inhibit the activity of JAK1, JAK2, JAK3, and Tyk2 was measured using a recombinant purified GST-tagged catalytic domain for each enzyme (Invitrogen JAK1 #M4290, JAK2 #M4290, JAK3 #M4290, Tyk2 #M4290) in an HTRF format biochemical assay. […] Subsequent reagent additions employed an Agilent Bravo. […] After equilibration, 2 μL of 10×ATP in 1× assay buffer was added to initiate the kinase reaction and the plates were shaken and then incubated at room temperature for 120 minutes. At the end of the incubation, 20 μL of 2× stop buffer (streptavidin-Dylight 650 (Thermo #84547B100 mL), Eu-tagged pY20 antibody (Perkin Elmer #AD0067), EDTA, HEPES, and Triton) was added to quench the reaction. […] After normalization to untreated controls, the percent inhibition of the HTRF signal at each compound concentration was calculated. The plot of percent inhibition versus the log of compound concentration was fit with a 4-parameter dose response equation to calculate IC50 values.

[2] = biological target: JAK2 (Homo sapiens (Human), UniProt O60674); experiment: Jak Biochemical HTRF Assay (JAK2); conditions: recombinant GST-tagged catalytic domain, [ATP] 8.5 μM
Description: as §1
The ability of compounds to inhibit the activity of JAK1, JAK2, JAK3, and Tyk2 was measured using a recombinant purified GST-tagged catalytic domain for each enzyme (Invitrogen JAK1 #M4290, JAK2 #M4290, JAK3 #M4290, Tyk2 #M4290) in an HTRF format biochemical assay. […] The basic assay protocol is as follows: First, 250 nL of diluted compounds in DMSO were dispensed into the wells of a dry 384-well Black plate (Greiner #781076) using a Labcyte Echo 555 acoustic dispenser. Subsequent reagent additions employed an Agilent Bravo. Next, 18 μL of 1.11× enzyme and 1.11× substrate in 1× assay buffer (Invitrogen kinase buffer # PV3189, 2 mM DTT, 0.05% BSA) were added to the wells and shaken and then preincubated for 30 minutes at room temperature to allow compound binding to equilibrate. After equilibration, 2 μL of 10×ATP in 1× assay buffer was added to initiate the kinase reaction and the plates were shaken and then incubated at room temperature for 120 minutes. At the end of the incubation, 20 μL of 2× stop buffer (streptavidin-Dylight 650 (Thermo #84547B100 mL), Eu-tagged pY20 antibody (Perkin Elmer #AD0067), EDTA, HEPES, and Triton) was added to quench the reaction. Plates were shaken and centrifuged and then incubated 60 minutes at room temperature and then read on a Perkin Elmer Envision (λex=337 nm, λem=665 and 615 nm, TRF delay time=20 μs). HTRF signal=10,000*665 nm reading 615 nm reading. After normalization to untreated controls, the percent inhibition of the HTRF signal at each compound concentration was calculated. The plot of percent inhibition versus the log of compound concentration was fit with a 4-parameter dose response equation to calculate IC50 values.

JAK2, sequence (O60674 849-1124): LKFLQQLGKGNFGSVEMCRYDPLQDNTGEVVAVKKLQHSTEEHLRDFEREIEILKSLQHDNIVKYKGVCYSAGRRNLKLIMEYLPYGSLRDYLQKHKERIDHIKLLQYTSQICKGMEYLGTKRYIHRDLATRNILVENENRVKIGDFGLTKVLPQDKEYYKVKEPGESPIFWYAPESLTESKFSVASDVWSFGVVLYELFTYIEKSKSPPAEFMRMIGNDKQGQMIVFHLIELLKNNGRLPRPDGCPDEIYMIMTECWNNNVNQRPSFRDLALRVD
JAK3, sequence (P52333 822-1111): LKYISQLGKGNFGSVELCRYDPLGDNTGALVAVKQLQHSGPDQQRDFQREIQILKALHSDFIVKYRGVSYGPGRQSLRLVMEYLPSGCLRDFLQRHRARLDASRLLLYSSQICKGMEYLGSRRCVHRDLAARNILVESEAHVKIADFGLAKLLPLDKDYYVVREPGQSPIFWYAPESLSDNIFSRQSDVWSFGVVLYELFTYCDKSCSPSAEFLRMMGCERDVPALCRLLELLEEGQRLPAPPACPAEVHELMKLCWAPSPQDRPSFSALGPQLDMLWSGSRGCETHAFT

| Structure (SMILES) | IC50 ([1]; given as range class) [nM] | IC50 ([2]; given as range class) [nM] | IC50 [1] [nM] | IC50 [2] [nM] |
| --- | --- | --- | --- | --- |
| CCOC(=O)c1c[nH]c2ncnc(C3=CCN(C(=O)OC(C)(C)C)CC3)c12 [Example 1-18, ethyl 4-[1-(tert-butoxycarbonyl)-1,2,3,6-tetrahydropyridin-4-yl]-7H-pyrrolo[2,3-d]pyrimidine-5-carboxylate] | 10 to 500 | 10 to 500 | – | – |
| CCOC(=O)c1c[nH]c2ncnc(C3=CCCN(C(=O)OC(C)(C)C)C3)c12 [Example 1-19, ethyl 4-[1-(tert-butoxycarbonyl)-1,2,5,6-tetrahydropyridin-3-yl]-7H-pyrrolo[2,3-d]pyrimidine-5-carboxylate] | 10 to 500 | > 500 | – | – |
| CCOC(=O)c1c[nH]c2ncnc(C3=CCN(C(=O)OC(C)(C)C)C3)c12 [Example 1-20, ethyl 4-[1-(tert-butoxycarbonyl)-2,5-dihydro-1H-pyrrol-3-yl]-7H-pyrrolo[2,3-d]pyrimidine-5-carboxylate] | 10 to 500 | > 500 | – | – |
| CCOC(=O)c1c[nH]c2ncnc(-c3cccc(OCC(F)(F)F)c3)c12 [Example 1-21, ethyl 4-[3-(2,2,2-trifluoroethoxy)phenyl]-7H-pyrrolo[2,3-d]pyrimidine-5-carboxylate] | – | – | 3.5 | 73 |
| CCOC(=O)c1c[nH]c2ncnc(C3=CCCCC3)c12 [Example 1-23, ethyl 4-cyclohex-1-en-1-yl-7H-pyrrolo[2,3-d]pyrimidine-5-carboxylate] | – | – | 6 | 62 |
| CCOC(=O)c1c[nH]c2ncnc(-c3ccc(Cl)c(N)c3)c12 [Example 1-24, ethyl 4-(3-amino-4-chlorophenyl)-7H-pyrrolo[2,3-d]pyrimidine-5-carboxylate] | – | – | 7.5 | 125 |
| CCOC(=O)c1c[nH]c2ncnc(-c3ccc4sc(C)nc4c3)c12 [Example 1-25, ethyl 4-(2-methyl-1,3-benzothiazol-5-yl)-7H-pyrrolo[2,3-d]pyrimidine-5-carboxylate] | 10 to 500 | 10 to 500 | – | – |
| CCOC(=O)c1c[nH]c2ncnc(-c3cccc(OC(F)(F)F)c3)c12 [Example 1-26, ethyl 4-[3-(trifluoromethoxy)phenyl]-7H-pyrrolo[2,3-d]pyrimidine-5-carboxylate] | 10 to 500 | 10 to 500 | – | – |
| CCOC(=O)c1c[nH]c2ncnc(-c3cnn(C)c3)c12 [Example 1-27, ethyl 4-(1-methyl-1H-pyrazol-4-yl)-7H-pyrrolo[2,3-d]pyrimidine-5-carboxylate] | 10 to 500 | > 500 | – | – |
| CCOC(=O)c1c[nH]c2ncnc(-c3cccnc3)c12 [Example 1-28, ethyl 4-pyridin-3-yl-7H-pyrrolo[2,3-d]pyrimidine-5-carboxylate] | 10 to 500 | > 500 | – | – |
| CCOC(=O)c1c[nH]c2ncnc(-c3ccc4c(C(=O)N(C)C)n(C)nc4c3)c12 [Example 1-30, ethyl 4-[3-(dimethylcarbamoyl)-2-methyl-2H-indazol-6-yl]-7H-pyrrolo[2,3-d]pyrimidine-5-carboxylate] | 10 to 500 | > 500 | – | – |
| CCOC(=O)c1c[nH]c2ncnc(-c3ccc4c(c3)NCC4)c12 [Example 1-31, ethyl 4-(2,3-dihydro-1H-indol-6-yl)-7H-pyrrolo[2,3-d]pyrimidine-5-carboxylate] | – | – | 4.6 | 91 |
| CCOC(=O)c1c[nH]c2ncnc(-c3ccc(COC)c(N)c3)c12 [Example 1-33, ethyl 4-[3-amino-4-(methoxymethyl)phenyl]-7H-pyrrolo[2,3-d]pyrimidine-5-carboxylate] | 10 to 500 | > 500 | – | – |
| CCOC(=O)c1c[nH]c2ncnc(-c3ccc4ccccc4c3)c12 [Example 1-40, ethyl 4-naphthalen-2-yl-7H-pyrrolo[2,3-d]pyrimidine-5-carboxylate] | – | – | 8.8 | 186 |
| CCOC(=O)c1c[nH]c2ncnc(-c3ccccc3F)c12 [Example 1-41, ethyl 4-(2-fluorophenyl)-7H-pyrrolo[2,3-d]pyrimidine-5-carboxylate] | – | – | 7.5 | 168 |
| CCOC(=O)c1c[nH]c2ncnc(-c3ccccc3Cl)c12 [Example 1-43, ethyl 4-(2-chlorophenyl)-7H-pyrrolo[2,3-d]pyrimidine-5-carboxylate] | 10 to 500 | > 500 | – | – |
| CCOC(=O)c1c[nH]c2ncnc(-c3ccc4c(c3)OCO4)c12 [Example 1-48, ethyl 4-(1,3-benzodioxol-5-yl)-7H-pyrrolo[2,3-d]pyrimidine-5-carboxylate] | – | – | 3.8 | 66 |
| CCOC(=O)c1c[nH]c2ncnc(-c3ccc4ncccc4c3)c12 [Example 1-49, ethyl 4-quinolin-6-yl-7H-pyrrolo[2,3-d]pyrimidine-5-carboxylate] | 10 to 500 | > 500 | – | – |

Results, then the compound that gave them:

| IC50 ([1]; given as range class) [nM] | IC50 ([2]; given as range class) [nM] | IC50 [1] [nM] | IC50 [2] [nM] | Structure (SMILES) |
| --- | --- | --- | --- | --- |
| 10 to 500 | > 500 | – | – | CCOC(=O)c1c[nH]c2ncnc(-c3ccncc3)c12 [Example 1-14, ethyl 4-pyridin-4-yl-7H-pyrrolo[2,3-d]pyrimidine-5-carboxylate] |
| – | – | 5.7 | 134 | CCOC(=O)c1c[nH]c2ncnc(-c3ccc(OC)cc3)c12 [Example 1-15, ethyl 4-(4-methoxyphenyl)-7H-pyrrolo[2,3-d]pyrimidine-5-carboxylate] |
| 10 to 500 | 10 to 500 | – | – | CCOC(=O)c1c[nH]c2ncnc(-c3cccc(OC)c3)c12 [Example 1-17, ethyl 4-(3-methoxyphenyl)-7H-pyrrolo[2,3-d]pyrimidine-5-carboxylate] |
| – | – | 4.6 | 78 | CCOC(=O)c1c[nH]c2ncnc(-c3ccc(C)c(N)c3)c12 [Example 1-22, ethyl 4-(3-amino-4-methylphenyl)-7H-pyrrolo[2,3-d]pyrimidine-5-carboxylate] |
| 10 to 500 | 10 to 500 | – | – | CCOC(=O)c1c[nH]c2ncnc(-c3ccc(F)cc3)c12 [Example 1-34, ethyl 4-(4-fluorophenyl)-7H-pyrrolo[2,3-d]pyrimidine-5-carboxylate] |
| – | – | 5.7 | 134 | CCOC(=O)c1c[nH]c2ncnc(-c3ccc(O)cc3)c12 [Example 1-35, ethyl 4-(4-hydroxyphenyl)-7H-pyrrolo[2,3-d]pyrimidine-5-carboxylate] |
| 10 to 500 | > 500 | – | – | CCOC(=O)c1c[nH]c2ncnc(-c3ccc(C(F)(F)F)cc3)c12 [Example 1-36, ethyl 4-[4-(trifluoromethyl)phenyl]-7H-pyrrolo[2,3-d]pyrimidine-5-carboxylate] |
| 10 to 500 | 10 to 500 | – | – | CCOC(=O)c1c[nH]c2ncnc(-c3ccc(C)cc3)c12 [Example 1-37, ethyl 4-(4-methylphenyl)-7H-pyrrolo[2,3-d]pyrimidine-5-carboxylate] |
| 10 to 500 | > 500 | – | – | CCOC(=O)c1c[nH]c2ncnc(-c3ccccc3C)c12 [Example 1-38, ethyl 4-(2-methylphenyl)-7H-pyrrolo[2,3-d]pyrimidine-5-carboxylate] |
| – | – | 9 | 121 | CCOC(=O)c1c[nH]c2ncnc(-c3cccc(F)c3)c12 [Example 1-42, ethyl 4-(3-fluorophenyl)-7H-pyrrolo[2,3-d]pyrimidine-5-carboxylate] |
| – | – | 4.2 | 47 | CCOC(=O)c1c[nH]c2ncnc(-c3ccc(-c4ccccc4)cc3)c12 [Example 1-44, ethyl 4-biphenyl-4-yl-7H-pyrrolo[2,3-d]pyrimidine-5-carboxylate] |
| – | – | 5.6 | 127 | CCOC(=O)c1c[nH]c2ncnc(-c3cccc(O)c3)c12 [Example 1-45, ethyl 4-(3-hydroxyphenyl)-7H-pyrrolo[2,3-d]pyrimidine-5-carboxylate] |
| – | – | 7.6 | 143 | CCOC(=O)c1c[nH]c2ncnc(-c3cccc(C)c3)c12 [Example 1-46, ethyl 4-(3-methylphenyl)-7H-pyrrolo[2,3-d]pyrimidine-5-carboxylate] |
| – | – | 3.3 | 90 | CCOC(=O)c1c[nH]c2ncnc(-c3ccc(N(C)C)cc3)c12 [Example 1-47, ethyl 4-[4-(dimethylamino)phenyl]-7H-pyrrolo[2,3-d]pyrimidine-5-carboxylate] |

Source: patent publication US8993756B2 (Merck Sharp & Dohme Corp., priority 2011, dated 2015)
